Like-named read-outs stand apart in the source and are kept apart here.
Test system: HIV-1 (IIIB) in MT-4 cells
Experiment: MT-4 HIV assay
Format: cell-based
Conditions: Human immunodeficiency virus 1, MT4, 120 h
Procedure, shortened: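 MT-4 cells infected with HIV-1 IIIB (1:250 stock dilution) were incubated with 1:3 serially diluted compounds in RPMI with 10% FBS for 5 days at 37 °C. Cell Titer Glo luminescence was the readout. Plates included mock-infected wells, no-drug wells and 5 uM AZT controls.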

[1] = HIV-1 (IIIB), MT-4 cells, 5 days, Cell Titer Glo, read-out: EC50

SMILES | EC50 [1] [nM] | EC50 [nM]
COC(=O)N[C@H](C(=O)N[C@@H](Cc1ccc(C#Cc2ccc(N3CC4CCC(C3)N4CC3CNC3)nc2)cc1)[C@@H](O)CN(Cc1c(F)cc(-c2cnn(C(F)F)c2)cc1F)NC(=O)[C@@H](NC(=O)OC)C(C)(C)C(F)(F)F)C(C)(C)C(F)(F)F [Example 109, Methyl ((5S,8S,9S,14S)-8-(4-((6-(8-(azetidin-3-ylmethyl)-3,8-diazabicyclo[3.2.1]octan-3-yl)pyridin-3-yl)ethynyl)benzyl)-11-(4-(1-(difluoromethyl)-1H-pyrazol-4-yl)-2,6-difluorobenzyl)-16,16,16-trifluoro-9-hydroxy-15,15-dimethyl-3,6,13-trioxo-5-(1,1,1-trifluoro-2-methylpropan-2-yl)-2-oxa-4,7,11,12-tetraazahexadecan-14-yl)carbamate] | 59.7 | –
COC(=O)N[C@H](C(=O)N[C@@H](Cc1ccc(C#Cc2ccc(N3CCN4CCOC[C@H]4C3)nc2)cc1)[C@@H](O)CN(Cc1c(F)cc(-c2ccn(C3CC3)n2)cc1F)NC(=O)[C@@H](NC(=O)OC)C(C)(C)C(F)(F)F)C(C)(C)C(F)(F)F [Example 136, methyl ((5S,8S,9S,14S)-11-(4-(1-cyclopropyl-1H-pyrazol-3-yl)-2,6-difluorobenzyl)-16,16,16-trifluoro-8-(4-((6-((R)-hexahydropyrazino[2,1-c][1,4]oxazin-8(1H)-yl)pyridin-3-yl)ethynyl)benzyl)-9-hydroxy-15,15-dimethyl-3,6,13-trioxo-5-(1,1,1-trifluoro-2-methylpropan-2-yl)-2-oxa-4,7,11,12-tetraazahexadecan-14-yl)carbamate] | 3.85 | –
COC(=O)N[C@H](C(=O)N[C@@H](Cc1ccc(C#Cc2ccc(N3CC4CCC(C3)N4C3COC3)nc2)cc1)[C@@H](O)CN(Cc1ccc(-c2ccn(C3CC3)n2)cc1)NC(=O)[C@@H](NC(=O)OC)C(C)(C)C(F)(F)F)C(C)(C)C(F)(F)F [Example 34, Methyl ((5S,8S,9S,14S)-11-(4-(1-cyclopropyl-1H-pyrazol-3-yl)benzyl)-16,16,16-trifluoro-9-hydroxy-15,15-dimethyl-8-(4-((6-(8-(oxetan-3-yl)-3,8-diazabicyclo [3.2.1]octan-3-yl)pyridin-3-yl)ethynyl)benzyl)-3,6,13-trioxo-5-(1,1,1-trifluoro-2-methylpropan-2-yl)-2-oxa-4,7,11,12-tetraazahexadecan-14-yl)carbamate] | 5.26 | –
COC(=O)N[C@H](C(=O)NN(Cc1ccc(-c2cnn(C(F)F)c2)cc1F)C[C@H](O)[C@H](Cc1ccc(C#Cc2ccc(N3CC4CCC(C3)N4C3COC3)nc2)cc1)NC(=O)[C@@H](NC(=O)OC)C(C)(C)C(F)(F)F)C(C)(C)C [Example 230, methyl ((5S,8S,9S,14S)-11-(4-(1-(difluoromethyl)-1H-pyrazol-4-yl)-2-fluorobenzyl)-9-hydroxy-15,15-dimethyl-8-(4-((6-(8-(oxetan-3-yl)-3,8-diazabicyclo[3.2.1]octan-3-yl)pyridin-3-yl)ethynyl)benzyl)-3,6,13-trioxo-5-(1,1,1-trifluoro-2-methylpropan-2-yl)-2-oxa-4,7,11,12-tetraazahexadecan-14-yl)carbamate] | 3.97 | –
COC(=O)N[C@H](C(=O)NN(Cc1c(F)cc(-c2ccn(C(F)F)n2)cc1F)C[C@H](O)[C@H](Cc1ccc(C#Cc2ccc(N3CCN4CCOC[C@H]4C3)nc2)cc1)NC(=O)[C@@H](NC(=O)OC)C(C)(C)C(F)(F)F)C(C)(C)C [Example 13, Methyl ((5S,8S,9S,14S)-11-(4-(1-(difluoromethyl)-1H-pyrazol-3-yl)-2,6-difluorobenzyl)-8-(4-((6-((R)-hexahydropyrazino[2,1-c][1,4]oxazin-8(1H)-yl)pyridin-3-yl)ethynyl)benzyl)-9-hydroxy-15,15-dimethyl-3,6,13-trioxo-5-(1,1,1-trifluoro-2-methylpropan-2-yl)-2-oxa-4,7,11,12-tetraazahexadecan-14-yl)carbamate] | 6.3 | –
COC(=O)N[C@H](C(=O)N[C@H](C(=O)N[C@@H](Cc1ccc(C#Cc2cnc(N3CC4CC(C3)N4C3COC3)nc2)cc1)[C@@H](O)CN(Cc1c(F)cc(-c2ccn(CC(F)F)n2)cc1F)NC(=O)[C@@H](NC(=O)OC)C(C)(C)C)C(C)(C)C)C(C)(C)C [Example 223, Methyl ((5S,8S,11S,12S,17S)-5,8-di-tert-butyl-14-(4-(1-(2,2-difluoroethyl)-1H-pyrazol-3-yl)-2,6-difluorobenzyl)-12-hydroxy-18,18-dimethyl-11-(4-((2-(6-(oxetan-3-yl)-3,6-diazabicyclo[3.1.1]heptan-3-yl)pyrimidin-5-yl)ethynyl)benzyl)-3,6,9,16-tetraoxo-2-oxa-4,7,10,14,15-pentaazanonadecane-17-yl)carbamate] | – | 12.9
COC(=O)N[C@H](C(=O)N[C@@H](Cc1ccc(C#Cc2ccc(N3C[C@H]4C[C@@H]3CN4C3COC3)nc2)cc1)[C@@H](O)CN(Cc1ccc(-c2ccn(C3CC3)n2)cc1)NC(=O)[C@@H](NC(=O)OC)C(C)(C)C(F)(F)F)C(C)(C)C(F)(F)F [Example 28, Methyl ((5S,8S,9S,14S)-11-(4-(1-cyclopropyl-1H-pyrazol-3-yl)benzyl)-16,16,16-trifluoro-9-hydroxy-15,15-dimethyl-8-(4-((6-((1R,4R)-5-(oxetan-3-yl)-2,5-diazabicyclo[2.2.1]heptan-2-yl)pyridin-3-yl)ethynyl)benzyl)-3,6,13-trioxo-5-(1,1,1-trifluoro-2-methylpropan-2-yl)-2-oxa-4,7,11,12-tetraazahexadecan-14-yl)carbamate] | 4.56 | –
COC(=O)N[C@H](C(=O)N[C@@H](Cc1ccc(C#Cc2ccc(N3CC4CCC(C3)N4CC3CN(C(=O)OC(C)(C)C)C3)nc2)cc1)[C@@H](O)CN(Cc1c(F)cc(-c2cnn(C(F)F)c2)cc1F)NC(=O)[C@@H](NC(=O)OC)C(C)(C)C(F)(F)F)C(C)(C)C(F)(F)F [Example 110, tert-butyl 3-((3-(5-((4-((2S,3S)-4-(1-(4-(1-(difluoromethyl)-1H-pyrazol-4-yl)-2,6-difluorobenzyl)-2-((S)-4,4,4-trifluoro-2-((methoxycarbonyl)amino)-3,3-dimethylbutanoyl)hydrazinyl)-3-hydroxy-2-((S)-4,4,4-trifluoro-2-((methoxycarbonyl)amino)-3,3-dimethylbutanamido)butyl)phenyl)ethynyl)pyridin-2-yl)-3,8-diazabicyclo[3.2.1]octan-8-yl)methyl)azetidine-1-carboxylate] | – | 30.8
COC(=O)N[C@H](C(=O)NN(Cc1c(F)cc(-c2ccn(C(F)F)n2)cc1F)C[C@H](O)[C@H](Cc1ccc(C#Cc2ccc(N3CC4CC(C3)N4C3COC3)nc2)cc1)NC(=O)[C@@H](NC(=O)OC)C(C)(C)C(F)(F)F)C(C)(C)C [Example 12, Methyl ((5S,8S,9S,14S)-11-(4-(1-(difluoromethyl)-1H-pyrazol-3-yl)-2,6-difluorobenzyl)-9-hydroxy-15,15-dimethyl-8-(4-((6-(6-(oxetan-3-yl)-3,6-diazabicyclo[3.1.1]heptan-3-yl)pyridin-3-yl)ethynyl)benzyl)-3,6,13-trioxo-5-(1,1,1-trifluoro-2-methylpropan-2-yl)-2-oxa-4,7,11,12-tetraazahexadecan-14-yl)carbamate] | 3.11 | –
COC(=O)N[C@H](C(=O)N[C@@H](Cc1ccc(-c2ccc(N3C[C@H]4C[C@@H]3CN4C3COC3)nc2)cc1)[C@@H](O)CN(Cc1c(F)cc(-c2ccn(CC(F)F)n2)cc1F)NC(=O)[C@@H](NC(=O)OC)C(C)(C)C(F)(F)F)C(C)(C)C(F)(F)F [Example 188, methyl ((5S,8S,9S,14S)-11-(4-(1-(2,2-difluoroethyl)-1H-pyrazol-3-yl)-2,6-difluorobenzyl)-16,16,16-trifluoro-9-hydroxy-15,15-dimethyl-8-(4-(6-((1R,4R)-5-(oxetan-3-yl)-2,5-diazabicyclo[2.2.1]heptan-2-yl)pyridin-3-yl)benzyl)-3,6,13-trioxo-5-(1,1,1-trifluoro-2-methylpropan-2-yl)-2-oxa-4,7,11,12-tetraazahexadecan-14-yl)carbamate] | 9 | –
COC(=O)N[C@H](C(=O)N[C@@H](Cc1ccc(C#Cc2ccc(N3CC4CC(C3)N4C3COC3)nc2)cc1)[C@@H](O)CN(Cc1c(F)cc(-c2cc(F)ccn2)cc1F)NC(=O)[C@@H](NC(=O)OC)C(C)(C)C(F)(F)F)C(C)(C)C(F)(F)F [Example 140, Methyl ((5S,10S,11S,14S)-8-(2,6-difluoro-4-(4-fluoropyridin-2-yl)benzyl)-16,16,16-trifluoro-10-hydroxy-15,15-dimethyl-11-(4-((6-(6-(oxetan-3-yl)-3,6-diazabicyclo [3.1.1]heptan-3-yl)pyridin-3-yl)ethynyl)benzyl)-3,6,13-trioxo-5-(1,1,1-trifluoro-2-methylpropan-2-yl)-2-oxa-4,7,8,12-tetraazahexadecan-14-yl)carbamate] | 5.09 | –
COC(=O)N[C@H](C(=O)N[C@@H](Cc1ccc(C#Cc2ccc(N3CC4CCC(C3)N4C(=O)[C@@H]3CCCO3)nc2)cc1)[C@@H](O)CN(Cc1c(F)cc(-c2ccn(C)n2)cc1F)NC(=O)[C@@H](NC(=O)OC)C(C)(C)C)C(C)(C)C [Example 227, Methyl ((5S,8S,9S,14S)-5-(tert-butyl)-11-(2,6-difluoro-4-(1-methyl-1H-pyrazol-3-yl)benzyl)-9-hydroxy-15,15-dimethyl-3,6,13-trioxo-8-(4-((6-(8-((S)-tetrahydrofuran-2-carbonyl)-3,8-diazabicyclo[3.2.1]octan-3-yl)pyridin-3-yl)ethynyl)benzyl)-2-oxa-4,7,11,12-tetraazahexadecan-14-yl)carbamate] | 2.9 | –
COC(=O)N[C@H](C(=O)NN(Cc1c(F)cc(-c2cnn(C(F)F)c2)cc1F)C[C@H](O)[C@H](Cc1ccc(C#Cc2ccc(N3CC4CCC(C3)N4C3COC3)nc2)cc1)NC(=O)[C@@H](NC(=O)OC)C(C)(C)C(F)(F)F)C(C)(C)CF [Example 80, Methyl ((5S,8S,9S,14S)-11-(4-(1-(difluoromethyl)-1H-pyrazol-4-yl)-2,6-difluorobenzyl)-16-fluoro-9-hydroxy-15,15-dimethyl-8-(4-((6-(8-(oxetan-3-yl)-3,8-diazabicyclo [3.2.1]octan-3-yl)pyridin-3-yl)ethynyl)benzyl)-3,6,13-trioxo-5-(1,1,1-trifluoro-2-methylpropan-2-yl)-2-oxa-4,7,11,12-tetraazahexadecan-14-yl)carbamate] | 3.13 | –

From US10294234B2, “HIV inhibitor compounds” (priority 2017, dated 2019)
